Data taken from patent US20080317875A1, “Inhibitor of PI3 kinase-dependent inflammatory cytokine synthesis and method for inhibiting the same” (priority 2006, published 2008).

How the values were obtained:
[1] = test system: C. rodentium; conditions: B10.D2 mice, vs control group
Procedure: 200 μl of the culture (a volume equivalent to 2-3×10^8 colony-forming unit (cfu) per mouse) was infected into the mice by oral administration through the diet. Mice were sacrificed after continued housing for a designated period of time. A segment of the distal colon was excised at 4.5 cm from the rectum and the fecal pellets were removed by washing with PBS. After weight measurement and macroscopic observation of the tissue, homogenization was performed with a Potter Elvehjem homogenizer (digital homogenizer, As One). The homogenate was serially diluted with cold PBS and then seeded on MacConkey's agar plates (Difco Laboratories). The number of the colonies produced on the plate was counted to determine CFU per mouse to be used as an indicator of the degree of infection. […]
Wild-type B10.D2 mice were orally infected with C. rodentium by the method as described in Example 3. Three days after infection, the mice were divided into three groups, and one group was sacrificed and the weight of the colon cleared of lumps of feces was measured. […] Each group was housed for three more days, and six days after the infection, the mice in the experimental and control groups were sacrificed and the weight of the colon was measured. […]

[2] = test system: IFN-γ; conditions: MLN cells from mice day 6 after infection, 30 mM LiCO3 in drinking water, vs control group; FIG. 8E
Procedure: The mesenteric lymph node (MLN) cells were isolated from the mesentery of the mice on day 12 of infection using a syringe needle. After cells were gently suspended, tissue fragments were removed by passing through a 100-μm mesh. Cells were then transferred to RPMI 1640 medium and culture was started at 37° C. Subsequently, the MLN cells were stimulated with bacterial lysate at 37° C. for 72 hr.
Meanwhile, MLN cells were isolated by the method as described in Example 3 from the mice 6 days after the oral infection. The isolated MLN cells were stimulated in vitro with C. rodentium lysate and IFN-γ produced was quantified by ELISA.

[3] = test system: bone marrow-derived dendritic cells (BMDCs); assay: IL-12p70 production in LPS-stimulated BMDCs after pretreatment with GSK3β inhibitor (ELISA); conditions: BMDCs pretreated 1 hr with 10 nM SB216763 or 5 mM LiCl, then 1 μg/ml LPS for 24 hr; FIG. 7B
Procedure: Bone marrow-derived dendritic cells (BMDCs) were isolated from wild-type mice by the method as described in Example 2. […] Meanwhile, after pretreatment for 1 hr with 10 nM GSK3β inhibitor SB216763 (Sigma) or 5 mM LiCl, the isolated BMDCs were stimulated with a 1 μg/ml LPS solution for 24 hr. The content of IL-12 in the culture supernatants after the stimulation was quantified using the ELISA kit specific to anti-mouse IL-12p70.

SMILES	symptom of bacterial infection in the colon (colon weight, macroscopic and histopathological observation) ([1]; 30 mM LiCO3 in drinking water from day 3 to day 6 after infection, FIG. 8A-C)	number of infecting bacteria in the colon (cfu) ([1]; 30 mM LiCO3 in drinking water, day 6 after infection, p<0.05, FIG. 8D)	expression level of IFN-γ in the lymph node cells [2]	production of IL-12 (IL-12p70 in culture supernatant) [3]
O=C([O-])[O-].[Li+].[Li+] [LiCO3, lithium carbonate]	relieved	significantly decreased	decreased	–
[Cl-].[Li+] [LiCl, lithium chloride]	–	–	–	decrease
Cn1cc(C2=C(c3ccc(Cl)cc3Cl)C(=O)NC2=O)c2ccccc21 [SB216763, reference compound]	–	–	–	decrease
